The values that follow come from patent US20120270237A9, “METHODS FOR THE IDENTIFICATION OF KINASE INTERACTING MOLECULES AND FOR THE PURIFICATION OF KINASE PROTEINS” (Cellzone AG, priority 2009, published 2012).

Holding throughout (test): Kinobeads competition binding, L-363 cell lysate
Common to all, as to parameters: endogenous in cells
Conditions in all cases: 10 μM free compound, L-363 lysate

The target in one assay is MARK2 (Homo sapiens, UniProt Q7KZI7). The method, then: (§1) To one aliquot of cell lysate 10 μM of the free compound (FIG. 3, CZC31326) was added and allowed to bind to proteins in the lysate. Then the affinity matrix with the immobilized compound was added to capture proteins that were not interacting with the previously added free compound. Beads were separated from the lysate and bead bound proteins were eluted in SDS sample buffer and subsequently separated by SDS-Polyacrylamide gel electrophoresis (FIG. 8). Suitable gel bands were cut out and subjected to in-gel proteolytic digestion with trypsin. The second lysate aliquot was processed identically, however no free compound was added (DMSO solvent control). Peptides originating from samples 1 and 2 were labeled with iTRAQ reagents (iTRAQ 114 and iTRAQ 117) and the combined samples were analyzed with a nano-flow liquid chromatography system coupled online to a tandem mass spectrometer (LC-MS/MS) experiment followed by iTRAQ reporter ion quantification in the MS/MS spectra as described in Example 2.
(§2) For this experiment the human plasma cell leukaemia line L-363 was used (German Collection of Microorganisms and Cell Cultures, DSMZ number ACC49, Braunschweig, Germany). Cells were treated for three hours with 20 μM of the proteasome inhibitor MG132 (Z-Leu-Leu-Leu-al, Sigma C2211) prior to cell harvesting.

The target of a further assay is MYT1 (Homo sapiens, UniProt Q99640). The method, then: as §1, §2
For a further assay, the target named is T1, GAK (Homo sapiens, UniProt O14976).
T1 sequence (O14976 1-1311): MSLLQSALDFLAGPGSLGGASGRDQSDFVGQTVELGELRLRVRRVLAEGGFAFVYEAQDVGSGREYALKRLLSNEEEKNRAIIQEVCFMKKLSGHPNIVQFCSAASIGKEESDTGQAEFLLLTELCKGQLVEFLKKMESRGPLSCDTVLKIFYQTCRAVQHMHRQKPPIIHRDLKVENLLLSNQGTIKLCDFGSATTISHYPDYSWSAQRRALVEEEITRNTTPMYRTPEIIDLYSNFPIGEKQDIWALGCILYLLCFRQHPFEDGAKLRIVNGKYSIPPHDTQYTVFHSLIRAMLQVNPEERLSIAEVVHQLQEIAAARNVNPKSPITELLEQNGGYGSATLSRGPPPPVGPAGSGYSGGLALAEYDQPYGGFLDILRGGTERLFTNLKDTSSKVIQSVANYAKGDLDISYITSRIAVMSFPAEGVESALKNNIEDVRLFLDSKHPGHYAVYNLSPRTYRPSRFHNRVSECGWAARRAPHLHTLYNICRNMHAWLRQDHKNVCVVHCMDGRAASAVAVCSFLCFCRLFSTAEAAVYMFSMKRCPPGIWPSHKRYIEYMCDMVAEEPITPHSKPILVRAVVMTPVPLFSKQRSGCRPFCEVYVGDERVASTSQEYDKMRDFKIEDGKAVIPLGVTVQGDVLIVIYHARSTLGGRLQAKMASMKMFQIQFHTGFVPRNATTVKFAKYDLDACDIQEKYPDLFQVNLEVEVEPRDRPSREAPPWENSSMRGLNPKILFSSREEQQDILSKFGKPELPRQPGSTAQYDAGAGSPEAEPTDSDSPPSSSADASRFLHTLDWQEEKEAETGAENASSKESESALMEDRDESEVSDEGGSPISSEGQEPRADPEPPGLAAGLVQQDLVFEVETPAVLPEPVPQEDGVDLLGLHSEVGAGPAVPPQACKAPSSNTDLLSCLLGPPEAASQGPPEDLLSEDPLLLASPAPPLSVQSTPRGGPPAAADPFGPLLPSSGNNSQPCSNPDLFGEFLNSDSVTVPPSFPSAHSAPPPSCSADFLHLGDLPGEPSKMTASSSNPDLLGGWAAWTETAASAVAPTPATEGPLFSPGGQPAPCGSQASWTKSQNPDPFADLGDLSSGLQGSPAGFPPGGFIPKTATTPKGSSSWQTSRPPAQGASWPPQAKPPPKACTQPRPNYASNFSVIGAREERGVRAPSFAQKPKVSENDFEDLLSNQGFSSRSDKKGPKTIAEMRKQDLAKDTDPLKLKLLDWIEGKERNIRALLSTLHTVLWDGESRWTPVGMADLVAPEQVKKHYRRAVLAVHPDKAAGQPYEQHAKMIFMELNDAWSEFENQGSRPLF
The method, then: as §1, §2

The target in the next assay is CHK1 (Homo sapiens, UniProt O14757). The method, then: as §1, §2
The next assay addresses T2, MAP2K5 (Homo sapiens, UniProt Q13163).
T2 sequence (Q13163 1-448): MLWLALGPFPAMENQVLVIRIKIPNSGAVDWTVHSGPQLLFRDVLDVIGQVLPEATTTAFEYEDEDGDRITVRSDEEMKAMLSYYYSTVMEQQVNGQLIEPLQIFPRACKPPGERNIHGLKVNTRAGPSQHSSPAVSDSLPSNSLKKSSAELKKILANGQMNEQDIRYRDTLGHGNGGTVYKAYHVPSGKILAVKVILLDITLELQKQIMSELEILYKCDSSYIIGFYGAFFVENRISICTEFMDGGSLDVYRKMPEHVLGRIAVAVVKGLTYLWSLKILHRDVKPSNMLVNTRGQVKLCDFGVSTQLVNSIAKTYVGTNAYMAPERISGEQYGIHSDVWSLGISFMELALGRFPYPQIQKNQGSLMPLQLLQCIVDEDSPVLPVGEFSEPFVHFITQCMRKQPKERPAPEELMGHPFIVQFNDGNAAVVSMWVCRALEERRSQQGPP
The method, then: as §1, §2

The target of the next assay is RSK3 (Homo sapiens, UniProt Q15349). The method, then:
as §1, §2

For a further assay, the target named is CDK5 (Homo sapiens, UniProt Q00535). The method, then: as §1, §2

Structures are written as SMILES.

Chain of CDK5 (Q00535 whole entry): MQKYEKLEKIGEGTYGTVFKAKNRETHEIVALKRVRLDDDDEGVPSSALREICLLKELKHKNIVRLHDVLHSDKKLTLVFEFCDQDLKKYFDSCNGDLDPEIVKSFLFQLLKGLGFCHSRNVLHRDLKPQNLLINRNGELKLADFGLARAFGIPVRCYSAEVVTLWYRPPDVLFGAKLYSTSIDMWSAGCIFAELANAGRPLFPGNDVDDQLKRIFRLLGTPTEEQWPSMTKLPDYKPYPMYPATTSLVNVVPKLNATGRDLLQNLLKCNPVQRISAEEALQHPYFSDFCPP
Chain of MARK2 (Q7KZI7 whole entry): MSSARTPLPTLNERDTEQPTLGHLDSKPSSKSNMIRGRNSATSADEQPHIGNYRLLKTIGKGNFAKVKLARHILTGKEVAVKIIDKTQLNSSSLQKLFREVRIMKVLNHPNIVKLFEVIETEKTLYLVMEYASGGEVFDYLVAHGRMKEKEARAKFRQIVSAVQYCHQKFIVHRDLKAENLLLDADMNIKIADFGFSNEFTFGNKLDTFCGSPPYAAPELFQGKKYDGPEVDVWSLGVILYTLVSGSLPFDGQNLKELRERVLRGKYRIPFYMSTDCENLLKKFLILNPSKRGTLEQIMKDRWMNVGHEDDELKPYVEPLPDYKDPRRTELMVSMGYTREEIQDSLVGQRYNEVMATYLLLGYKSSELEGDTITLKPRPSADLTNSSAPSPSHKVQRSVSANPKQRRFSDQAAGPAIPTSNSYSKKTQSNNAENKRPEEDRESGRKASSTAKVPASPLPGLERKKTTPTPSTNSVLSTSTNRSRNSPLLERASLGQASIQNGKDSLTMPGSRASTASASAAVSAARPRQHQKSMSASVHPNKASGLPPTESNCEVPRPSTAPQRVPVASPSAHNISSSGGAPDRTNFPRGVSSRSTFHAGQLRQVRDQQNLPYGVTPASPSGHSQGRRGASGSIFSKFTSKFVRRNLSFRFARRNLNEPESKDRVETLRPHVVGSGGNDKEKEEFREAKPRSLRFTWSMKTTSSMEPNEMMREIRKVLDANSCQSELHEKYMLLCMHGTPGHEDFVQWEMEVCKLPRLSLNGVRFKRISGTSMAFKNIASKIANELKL
Chain of RSK3 (Q15349 whole entry): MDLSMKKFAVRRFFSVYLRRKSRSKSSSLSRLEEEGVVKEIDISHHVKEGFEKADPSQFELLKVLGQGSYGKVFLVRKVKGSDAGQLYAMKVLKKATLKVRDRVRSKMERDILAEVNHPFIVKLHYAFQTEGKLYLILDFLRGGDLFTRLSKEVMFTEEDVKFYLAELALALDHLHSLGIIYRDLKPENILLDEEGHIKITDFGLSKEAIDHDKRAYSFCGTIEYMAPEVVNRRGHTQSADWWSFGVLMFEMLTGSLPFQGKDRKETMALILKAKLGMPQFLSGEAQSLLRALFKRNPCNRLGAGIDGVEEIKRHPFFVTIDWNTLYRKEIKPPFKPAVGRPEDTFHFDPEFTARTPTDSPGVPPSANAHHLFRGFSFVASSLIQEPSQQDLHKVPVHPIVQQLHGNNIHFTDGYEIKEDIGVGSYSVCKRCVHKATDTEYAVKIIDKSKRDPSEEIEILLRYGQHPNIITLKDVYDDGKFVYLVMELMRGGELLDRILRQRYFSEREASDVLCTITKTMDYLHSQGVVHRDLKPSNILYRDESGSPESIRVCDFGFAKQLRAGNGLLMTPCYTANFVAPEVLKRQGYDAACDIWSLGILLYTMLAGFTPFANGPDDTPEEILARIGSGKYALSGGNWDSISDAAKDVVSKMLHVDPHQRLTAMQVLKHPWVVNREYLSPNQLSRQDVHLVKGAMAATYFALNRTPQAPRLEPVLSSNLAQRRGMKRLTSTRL
Chain of MYT1 (Q99640 whole entry): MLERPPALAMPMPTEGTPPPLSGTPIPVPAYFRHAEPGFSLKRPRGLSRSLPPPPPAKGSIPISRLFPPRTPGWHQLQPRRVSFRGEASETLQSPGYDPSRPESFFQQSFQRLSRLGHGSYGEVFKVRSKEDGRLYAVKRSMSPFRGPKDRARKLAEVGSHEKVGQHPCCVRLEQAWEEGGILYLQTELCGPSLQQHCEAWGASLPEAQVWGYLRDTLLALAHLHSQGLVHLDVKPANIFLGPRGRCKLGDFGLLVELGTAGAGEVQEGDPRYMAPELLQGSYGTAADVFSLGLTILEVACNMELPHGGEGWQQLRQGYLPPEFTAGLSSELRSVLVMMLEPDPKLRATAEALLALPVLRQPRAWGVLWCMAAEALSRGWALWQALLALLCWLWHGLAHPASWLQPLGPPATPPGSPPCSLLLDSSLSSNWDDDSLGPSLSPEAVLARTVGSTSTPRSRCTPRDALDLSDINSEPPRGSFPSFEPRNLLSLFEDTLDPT
Chain of CHK1 (O14757 whole entry): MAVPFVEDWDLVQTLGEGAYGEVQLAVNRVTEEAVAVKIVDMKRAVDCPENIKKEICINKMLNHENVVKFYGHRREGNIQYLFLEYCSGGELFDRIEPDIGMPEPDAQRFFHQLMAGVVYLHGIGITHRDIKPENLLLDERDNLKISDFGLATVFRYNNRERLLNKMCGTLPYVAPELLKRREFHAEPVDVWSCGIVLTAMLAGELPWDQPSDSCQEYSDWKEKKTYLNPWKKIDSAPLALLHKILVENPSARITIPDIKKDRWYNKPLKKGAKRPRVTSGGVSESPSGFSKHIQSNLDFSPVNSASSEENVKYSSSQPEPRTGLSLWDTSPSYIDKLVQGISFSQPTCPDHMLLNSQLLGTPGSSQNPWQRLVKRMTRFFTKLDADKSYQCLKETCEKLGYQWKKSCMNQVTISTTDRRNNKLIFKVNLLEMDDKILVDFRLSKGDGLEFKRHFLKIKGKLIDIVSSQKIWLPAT

On to `CS(=O)(=O)Nc1ccccc1Nc1nc(Nc2cccc(OCCN)c2)ncc1Cl` [CZC31326, N-(2-(2-(3-(2-aminoethoxy)phenylamino)-5-chloropyrimidin-4-ylamino)phenyl)methanesulfonamide], for which the inhibition at 10 µM was determined as 97% at MARK2; 98.2% on GAK; 97.5% at MAP2K5; 96.9% at RSK3; 96.4% on CDK5. Moreover, the Competition % on MYT1 was determined as 93.1%; at CHK1 it was 94.8%.

In general, inhibition refers to the drop in the measured response relative to a control, in per cent. Read a high inhibition as a strong effect.
